“Also recorded” adds a separate entry of the source.
Key:
[1] = Quantification of exchange rates (QUESP, Bloch equation fitting); type: physicochemical; details: 11.7 T, pH 7.4, 37° C.
Experimental: Exchange rates were quantified with the saturation power dependent CEST approach (QUESP) and Bloch equation fitting (McMahon et al., Magn. Res. Med. 2006, 55, 836). For each sample, the MTRasym was measured at the imino resonance frequency for CEST saturation fields of 43, 85, 128, 170, 213, 255, 340, and 426 Hz while the saturation pulse duration was kept constant at 4000 ms. The Bloch equations were then fit numerically to these MTRasym values using MATLAB (Mathworks), and the exchange rates (kex, s^−1) were determined from the fits. Errors (95% confidence limits) were estimated using the F statistic.

[2] = In vitro CEST-MRI of thymidine analogues at 11.7 T; type: physicochemical; details: pH 7.4, 37° C.
Experimental: All compounds were dissolved at a concentration of 20 mM in phosphate-buffered saline (PBS) (pH=7.4) and placed in microcapillaries, as described previously.^17 CESTMRI experiments were performed on a vertical 11.7 T scanner (Bruker Avance system) at 37° C. A modified RARE sequence (TR/TE=10 000/9.4 ms; RARE factor=16; 1 mm slice thickness; FOV=11×11 mm^2; matrix size=64×32; resolution=0.17×0.34 mm^2; and NA=2) including a magnetization transfer (MT) module ([…]) was used to acquire CEST-weighted images from −8 to +8 ppm with increments of 0.2 ppm around the water resonance, which was assigned to be at 0 ppm. Pixel-based B0 correction was used as described before using the same parameters as above except for TR=1500 ms and B1/tsat=21 Hz/500 ms, with a sweep range from −2 to +2 ppm (0.1 ppm steps). Data processing was performed using custom-written scripts in MATLAB (Mathworks). Mean CEST spectra were plotted from an ROI for each sample, after B0 correction. MTRasym=100×(S^−Aω−S^AωA/^‘−’0)/3 was computed at different offsets Aω.

HSV1-TK over m-TK = test: Kinase assay with HEK-293FT cell extracts (293^HSV1-tk vs 293^wt); type: biochemical; details: 5 μM substrate, 2 μL cell extract; specificity HSV1-TK over m-TK
Experimental: In a solid white 96-well plate, 5 μM substrate (dT, compounds 1, 2, or 3; N=4 for each substrate) and 20 μM ATP were dissolved in 48 μL of kinase reaction buffer (40 mM Tris; pH=7.5, 20 mM MgCl2, and 0.1 mg/mL BSA) followed by the addition of 2 μL of purified HSV1-TK to initiate the kinase reaction. Eight wells without substrate were included as the control reference. The plate was incubated at room temperature for 2 h, after which 50 μL of Kinase-Glo luciferase reagent (Kinase-Glo max luminescent kinase assay, Promega Inc.) was added. After […], the resulting luminescence values were recorded and used to quantify the residual ATP in the reaction. The relative phosphorylation (%) was then defined as the luminescence signal obtained after the enzymatic reaction (substrate+HSV1-TK+ATP) relative to the signal obtained from wells without substrate (HSV1-TK+ATP). For a phosphorylation assay performed on HEK-293FT lysates, 2 μL of cell extract (either ^293HSV1-tk or 293^wt cells) was used instead of purified HSV1-TK, and the assay was performed using 1 or 2 as the substrate according to the procedure described above.

293^HSV1-tk cells = test: Cell viability assay (CellTiter-Blue); type: cell-based, human; details: 0.5 mg/ml, 4 and 24 hours
Experimental: Cell viability assay was performed using CellTiter-Blue® Cell Viability Assay (Promega), which provides a fluorometric method for estimating the number of viable cells present in 96 well plate. HEK293FT cells transduced with the HSV1-tk (293^HSV1-tk) were plated in 96 well-plate (10,000 cells/well). Cells were incubated for a periods of 4 hours and 24 hours in the presence of ganciclovir (GCV, 0.5 mg/ml in cell medium), compound 2 (0.5 mg/ml in cell medium) and medium (as control). CellTiter-Blue® Reagent was added (20 μl/well) and plate was incubated for 3 hours at 37° C. Finally, fluorescence 560/590 nm was recorded and values obtained from probe containing wells (GCV or 2, N=4) were normalized to values of non-treated cells (control wells) to determine the % of viable cells after the incubation period.

9L^HSV1-tk cells = test: In vitro detection of accumulation with MR spectroscopy; type: cell-based, rat; details: 9L^HSV1-tk cells incubated 3.5 h
Experimental: At least two distinctive peaks, typical to 2, appear in the spectra of the pure compound (black), a singlet at 1.22 ppm (6H of the 2 Methyls) and a triplet at 6.29 ppm (1H, the proton on 1′ carbon of the sugar). Both peaks appear in the lysate of cells incubated with the compound (red spectra) but not in the control (blue spectra). The samples were prepared using dual-phase extraction for simultaneous extraction of cellular lipids and water-soluble metabolite. Twenty five million cells (9L^HSV1-tk) were incubated with or without 2 for 3.5 h. After dual-phase extraction and lyophilizing of the water from the water-soluble fraction, the soluble intracellular contents were dissolved in D2O for the ^1H-NMR experiments. Fully relaxed ^1H-NMR spectra of the extracts were acquired on a Bruker 500 MHz scanner. The signal integrals of the typical functional groups of 2 (methyl groups —(CH3)2 at 1.22 ppm and of the CH on the C-1′ position of the sugar moiety at 6.29 ppm) and of the standard TSP (0 ppm) were determined. Then, the mM intracellular concentration of 2 was calculated as shown previously (Glunde, K. et al., Cancer Res 2005, 65, 11034) and found to be 0.37 mM.

[3] = system: 9L^wt and 9L^HSV1-tk tumors; test: Terminal transferase nick-end-labeling (TUNEL) of brain tumors; type: in vivo, mice; details: 150 mg/kg, 6 hours post i.v. injection
Experimental: ApopTag® Plus In Situ Apoptosis Fluorescein Detection Kit (Millipore) was used for detecting degraded DNA fragments to evaluate apoptosis after the administration of compound 2. Six hours after i.v. administration of 2 (150 mg/kg body weight) mice were transcardially perfused with 10 mM PBS and 4% PFA for tissue fixation. Brains were fixed in 4% PFA overnight, cryopreserved in 30% sucrose, and followed by cryo-sectioning at 30 μm slices. Slices were post-fixed in ethanol: acetic acid (2:1) solution followed by the manufacture procedure for using the ApopTag® Plus In Situ Apoptosis Fluorescein Detection Kit (Millipore, […]).

[4] = at 5 ppm for 20 nM agent (so in the source)

CC1(C)CN([C@H]2C[C@H](O)[C@@H](CO)O2)C(=O)NC1=O [Compound 2, 5-Methyl-5,6-dihydrothymidine]
kex of the imino proton [1]: 1.7±0.3×10^3 s^−1 | kex, quantified exchange rates of imino and water protons ([1]; 5 ppm for 1-3, 6 ppm for dT): 1.7 ± 0.3 ×10^3 s^−1 | MTRasym (8.5 Hz) [2, 4]: 4% | MTRasym (170 Hz) [2, 4]: 16% | MTRasym (213 Hz) [2, 4]: 21% | MTRasym (128 Hz) ([2]; at 5 ppm for 20 mM agent): 10% | increase in phosphorylation with respect to control extract (293^wt), factor relative to that of 1 (HSV1-TK over m-TK): about 10 | toxic effect on 293^HSV1-tk cells (293^HSV1-tk cells): did not show any toxic effect; also recorded: no toxic effect | intracellular concentration by 1H-NMR (9L^HSV1-tk cells): 0.37 mM | apoptosis (TUNEL staining) [3]: did not induce apoptosis; also recorded: do not induce apoptosis

— patent US20160082133A1, “CHEMICAL EXCHANGE SATURATION TRANSFER (CEST) BASED MRI USING REPORTER GENES AND SUBSTRATES AND METHODS THEREOF” (The Johns Hopkins University, priority 2013, published 2016)
